Data set [1] deals with T1, Amine oxidase [flavin-containing] B (Mus musculus, UniProt Q8BW75).
T1 sequence (Q8BW75 whole entry): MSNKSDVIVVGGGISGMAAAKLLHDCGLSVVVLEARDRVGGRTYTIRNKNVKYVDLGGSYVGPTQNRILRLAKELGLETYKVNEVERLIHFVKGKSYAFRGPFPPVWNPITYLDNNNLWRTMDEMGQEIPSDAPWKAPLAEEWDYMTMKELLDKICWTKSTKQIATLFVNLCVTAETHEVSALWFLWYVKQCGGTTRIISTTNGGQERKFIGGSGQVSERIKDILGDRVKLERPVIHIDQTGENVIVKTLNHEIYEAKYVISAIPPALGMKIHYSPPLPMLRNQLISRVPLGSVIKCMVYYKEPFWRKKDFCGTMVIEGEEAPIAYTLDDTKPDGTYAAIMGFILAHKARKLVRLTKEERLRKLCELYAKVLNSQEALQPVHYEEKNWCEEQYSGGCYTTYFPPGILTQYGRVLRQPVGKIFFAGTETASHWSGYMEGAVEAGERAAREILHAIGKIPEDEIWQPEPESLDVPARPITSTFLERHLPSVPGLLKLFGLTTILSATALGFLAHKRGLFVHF
In words: Inhibition of MAOB in mouse brain mitochondrial fraction assessed as enzyme activity per mg of protein using beta-PEA substrate incubated for 20 mins by UV-spectrophotometry. In kind it is tissue-based.

The target of data set [2] is T2, Amine oxidase [flavin-containing] A (Mus musculus, UniProt Q64133).
T2 sequence (Q64133 whole entry): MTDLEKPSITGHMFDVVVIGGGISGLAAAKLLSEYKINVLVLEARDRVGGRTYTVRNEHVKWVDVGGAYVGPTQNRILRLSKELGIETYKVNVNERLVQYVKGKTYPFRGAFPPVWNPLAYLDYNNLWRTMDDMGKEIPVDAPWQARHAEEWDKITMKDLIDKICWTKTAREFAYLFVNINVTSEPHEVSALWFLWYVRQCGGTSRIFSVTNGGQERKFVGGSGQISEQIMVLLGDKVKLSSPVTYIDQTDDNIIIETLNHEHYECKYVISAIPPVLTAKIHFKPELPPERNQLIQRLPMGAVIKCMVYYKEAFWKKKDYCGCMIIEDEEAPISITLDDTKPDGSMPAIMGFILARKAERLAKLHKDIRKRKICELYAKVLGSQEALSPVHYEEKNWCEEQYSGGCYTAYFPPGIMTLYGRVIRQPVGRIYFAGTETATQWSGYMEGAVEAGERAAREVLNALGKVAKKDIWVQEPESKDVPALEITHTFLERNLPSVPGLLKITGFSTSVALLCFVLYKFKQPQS
In words: Inhibition of MAOA in mouse brain mitochondrial fraction assessed as enzyme activity per mg of protein using 5-HT substrate incubated for 20 mins by UV-spectrophotometry. The data set is classed as tissue-based.

Data set [3] deals with Mus musculus. In words: Antidepressant activity in Swiss albino mouse assessed as mean immobility time measured during 6 mins period at 20 mg/kg, po administered 30 mins before test by tail suspension test (reference value: 185.7 +/- 5.33 secs). In kind it is functional.
Data set [4] has as its system Mus musculus. Kind of data set: Antidepressant activity in Swiss albino mouse assessed as mean immobility time measured during last 4 mins of single 6 mins test session at 20 mg/kg, po by forced swim test (reference value: 75.33 +/- 3.35 secs). In kind it is functional.
Data set [5] can be described thus: Antioxidant activity assessed as superoxide scavenging activity using xanthine-xanthine oxidase system by NBT dye reduction based assay. In kind it is functional.
The test system of data set [6] is Radical scavenging activity. In words: Antioxidant activity assessed as DPPH free radical scavenging activity by spectrophotometry. The data set is classed as functional.
Data set [7] has as its system Aspergillus flavus. Kind of data set: Antimicrobial activity against Aspergillus flavus NCIM 524 by broth dilution method. The data set is classed as functional.
In data set [8] the test system is Aspergillus flavus. Kind of data set: Antimicrobial activity against Aspergillus flavus NCIM 524 at 100 ug/mL incubated for 48 hrs by agar disc diffusion method. In kind it is functional. Conditions: NCIM 524, 48 h, read-out: IZ. (In agar diffusion tests the substance spreads into inoculated agar from a disc or well.)
In data set [9] the test system is Candida albicans. In words: Antimicrobial activity against Candida albicans NCIM 3471 by broth dilution method. The data set is classed as functional. For orientation: Broth dilution looks for growth in wells or tubes with falling amounts of substance.
Data set [10] concerns Candida albicans. In words: Antimicrobial activity against Candida albicans NCIM 3471 at 100 ug/mL incubated for 48 hrs by agar disc diffusion method. The data set is classed as functional. Conditions: NCIM 3471, 48 h, read-out: IZ.
In data set [11] the test system is Pseudomonas aeruginosa. In words: Antimicrobial activity against Pseudomonas aeruginosa NCIM 5029 by broth dilution method. The data set is classed as functional.
Data set [12] deals with Pseudomonas aeruginosa. Kind of data set: Antimicrobial activity against Pseudomonas aeruginosa NCIM 5029 at 100 ug/mL incubated for 24 hrs by agar disc diffusion method. The data set is classed as functional. The settings on record: NCIM 5029, 24 h, read-out: IZ.
Data set [13] concerns Escherichia coli. Kind of data set: Antimicrobial activity against Escherichia coli NCIM 2574 by broth dilution method. In kind it is functional.
Data set [14] concerns Escherichia coli. Kind of data set: Antimicrobial activity against Escherichia coli NCIM 2574 at 100 ug/mL incubated for 24 hrs by agar disc diffusion method. In kind it is functional. The settings on record: NCIM 2574, 24 h, read-out: IZ.
For data set [15], the system named is Bacillus subtilis. In words: Antimicrobial activity against Bacillus subtilis NCIM 2999 by broth dilution method. In kind it is functional.
In data set [16] the test system is Staphylococcus aureus. Kind of data set: Antimicrobial activity against Staphylococcus aureus NCIM 5021 by broth dilution method. The data set is classed as functional.
For data set [17], the system named is Staphylococcus aureus. In words: Antimicrobial activity against Staphylococcus aureus NCIM 5021 at 100 ug/mL incubated for 24 hrs by agar disc diffusion method. The settings on record: NCIM 5021, 24 h, read-out: IZ. The data set is classed as functional.
For data set [18], the system named is Bacillus subtilis. Kind of data set: Antimicrobial activity against Bacillus subtilis NCIM 2999 at 100 ug/mL incubated for 24 hrs by agar disc diffusion method. In kind it is functional. Conditions: NCIM 2999, 24 h, read-out: IZ.
Data set [19] deals with Aspergillus flavus. Kind of data set: Antimicrobial activity against Aspergillus flavus NCIM 524 at 10 ug/disc incubated for 48 hrs by agar disc diffusion method. The data set is classed as functional. Conditions: NCIM 524, 48 h.
In data set [20] the test system is Candida albicans. Kind of data set: Antimicrobial activity against Candida albicans NCIM 3471 at 10 ug/disc incubated for 48 hrs by agar disc diffusion method. In kind it is functional. The settings on record: NCIM 3471, 48 h, read-out: IZ.
The subject of data set [21] is Pseudomonas aeruginosa. In words: Antimicrobial activity against Pseudomonas aeruginosa NCIM 5029 at 10 ug/disc incubated for 24 hrs by agar disc diffusion method. The data set is classed as functional. The settings on record: NCIM 5029, 24 h, read-out: IZ.
In data set [22] the test system is Escherichia coli. In words: Antimicrobial activity against Escherichia coli NCIM 2574 at 10 ug/disc incubated for 24 hrs by agar disc diffusion method. The settings on record: NCIM 2574, 24 h, read-out: IZ. The data set is classed as functional.
Data set [23] concerns Bacillus subtilis. In words: Antimicrobial activity against Bacillus subtilis NCIM 2999 at 10 ug/disc incubated for 24 hrs by agar disc diffusion method. The data set is classed as functional. Conditions: NCIM 2999, 24 h, read-out: IZ.
The subject of data set [24] is Staphylococcus aureus. In words: Antimicrobial activity against Staphylococcus aureus NCIM 5021 at 10 ug/disc incubated for 24 hrs by agar disc diffusion method. In kind it is functional. The settings on record: NCIM 5021, 24 h, read-out: IZ.

≈ marks a conversion by molar mass, not a printed value. A value given as a limit tells only on which side of the number the result lay.

What is called IC50 is the midpoint of a concentration-inhibition curve. A word on the MIC: it is the least concentration at which growth counts as inhibited. Read a high MIC as weaker potency. With `COc1cc(/C=C/C(=O)N2CCCCC2)cc2c1OCO2`, the Activity is listed as 18.01 nmol in data set [1] and 17.09 nmol in [2]. In addition, the Time is recorded as 78.18 s in the data set with Mus musculus [3] and 32.15 s with Mus musculus [4]. Further, the IC50 in data set [5] came out at 18.2 µg/mL (≈ 62.9 µM); in [6], 14.9 µg/mL (≈ 51.5 µM). For the same compound, the MIC amounted to 30 µg/mL (≈ 104 µM) against Aspergillus flavus [7]; 28 µg/mL (≈ 96.8 µM) with Candida albicans [9]; 30 µg/mL (≈ 104 µM) against Pseudomonas aeruginosa [11]; 30 µg/mL (≈ 104 µM) with Escherichia coli [13]; 26 µg/mL (≈ 89.9 µM) with Bacillus subtilis [15]; 24 µg/mL (≈ 82.9 µM) against Staphylococcus aureus [16]. The zone of inhibition at 100 µg/mL worked out at 11 mm with Aspergillus flavus [8]; 12.5 mm in the data set on Candida albicans [10]; 16 mm with Pseudomonas aeruginosa [12]; 15 mm in the data set on Escherichia coli [14]; 10 mm with Staphylococcus aureus [17]; 13 mm with Bacillus subtilis [18].

For the compound `COc1cc(/C=C/C(=O)N2CCC(O)CC2)cc2c1OCO2`, the Activity in data set [1] came to 15.72 nmol; in data set [2], 14.46 nmol. The Time in the data set on Mus musculus [3] was 76.18 s; with Mus musculus [4], 30.8 s. Moreover, the IC50 in data set [5] is 12.8 µg/mL (≈ 41.9 µM); in data set [6], 8.3 µg/mL (≈ 27.2 µM). For the same compound, the MIC in the data set on Aspergillus flavus [7] is 90 µg/mL (≈ 295 µM); in the data set on Candida albicans [9] it was 100 µg/mL (≈ 328 µM); in the data set on Pseudomonas aeruginosa [11], greater than 100 µg/mL; against Escherichia coli [13] it was greater than 100 µg/mL; against Bacillus subtilis [15], 50 µg/mL (≈ 164 µM); against Staphylococcus aureus [16] it was 50 µg/mL (≈ 164 µM). Besides, the zone of inhibition at 100 µg/mL worked out at 10.2 mm with Aspergillus flavus [8]; 14 mm in the data set with Candida albicans [10]; 11 mm in the data set with Pseudomonas aeruginosa [12]; 11 mm in the data set with Escherichia coli [14]; 10 mm with Staphylococcus aureus [17]; 7 mm in the data set on Bacillus subtilis [18].

Turning to `OC(Cn1cncn1)(Cn1cncn1)c1ccc(F)cc1F` [FLUCONAZOLE], the MIC against Aspergillus flavus [19] and in the data set on Candida albicans [9] was 5 µg/mL (≈ 16.3 µM) throughout. The zone of inhibition at 100 µg/mL in the data set with Aspergillus flavus [8] is 19 mm. Besides, the zone of inhibition at 10 µg/disc in the data set with Candida albicans [20] was found to be 16 mm.

Take `CN[C@@H]1[C@H](O[C@H]2[C@H](O[C@H]3[C@H](O)[C@@H](O)[C@H](N=C(N)N)[C@@H](O)[C@@H]3N=C(N)N)O[C@@H](C)[C@]2(O)C=O)O[C@@H](CO)[C@H](O)[C@H]1O` [STREPTOMYCIN]: the MIC against Pseudomonas aeruginosa [11], in the data set on Escherichia coli [13], with Bacillus subtilis [15] and against Staphylococcus aureus [16] was 5 µg/mL (≈ 8.6 µM) throughout. The zone of inhibition at 10 µg/disc in the data set with Pseudomonas aeruginosa [21] turned out to be 14 mm; in the data set on Escherichia coli [22] it was 14.5 mm; in the data set with Bacillus subtilis [23] it was 10.4 mm; with Staphylococcus aureus [24], 11.6 mm.

The record behind these values is ChEMBL document CHEMBL2203030, “Synthesis, characterization, antidepressant and antioxidant activity of novel piperamides bearing piperidine and piperazine analogues” (Bioorg Med Chem Lett, 2012).
